Assay results taken from publication PMC11420952, “A Chemical Approach to Assess the Impact of Post-translational Modification on MHC Peptide Binding and Effector Cell Engagement” (ACS Chemical Biology, 2024).
Where no end group is shown, it is not given here. [ ]: non-standard residue; d: D form. The star is where a group is joined. Biotin = O=C1N[C@H]2[C@H](CS[C@H]2CCCCC(=O)*)N1; Cit = NC(=O)NCCC[C@H](N)C(=O)O

How the values were obtained:
H-2K^b [1] = target: T1, H-2K^b (Mus musculus, UniProt P01901); conditions: reported in the literature; cited from earlier work
T1 construct: endogenous in cells; host or cells: RMA-S cells (TAP-deficient)
T1 sequence (P01901 22-369): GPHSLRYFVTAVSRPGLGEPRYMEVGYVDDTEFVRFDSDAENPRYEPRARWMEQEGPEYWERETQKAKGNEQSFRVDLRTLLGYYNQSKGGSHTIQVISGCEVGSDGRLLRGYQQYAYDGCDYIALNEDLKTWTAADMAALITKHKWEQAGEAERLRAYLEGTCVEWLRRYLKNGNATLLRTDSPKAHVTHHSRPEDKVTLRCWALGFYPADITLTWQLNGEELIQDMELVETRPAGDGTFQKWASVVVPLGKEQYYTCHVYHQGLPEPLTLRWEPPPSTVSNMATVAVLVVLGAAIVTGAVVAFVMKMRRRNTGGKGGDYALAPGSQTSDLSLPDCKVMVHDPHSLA
T1 sequence (P01887 21-119 partner): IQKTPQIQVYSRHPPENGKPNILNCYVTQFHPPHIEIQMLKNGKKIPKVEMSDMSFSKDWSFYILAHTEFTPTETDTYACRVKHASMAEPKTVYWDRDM

H-2K^b [2] = target: T1, H-2K^b; assay: cell-based; conditions: RMA-S cells, peptide 20 μM, APC anti-mouse H-2K^b antibody, flow cytometry; for effect of PTM on MHC binding versus the unmodified peptide (ovaWT or mbpWT): Figures 2B and 3B, mean ± SD n = 4, two-tailed t-test; for effect of PTM on MHC binding versus sarsWT: Figure 1C, mean ± SD n = 3, two-tailed t-test
MHC on RMA-S cells = assay: Mild acid elution of MHC-bound peptides from RMA-S cells and mass spectrometry; assay type: cell-based; conditions: 10^9 RMA-S cells, 20 μM peptide, mild acid elution pH 3.3, LC-MS/MS (LTQ-Orbitrap); Figures S5-S8
Procedure: We then sought to detect changes in peptide binding via a competition assay using the parent cell line (RMA) that has a competent TAP system. To this end, we performed a competition assay using the panel of OVA peptides barring PTM mark in live RMA cells. The assay was performed by coincubating RMA cells individually with PTM-modified peptides and also ovaFl (SIINFEK(FITC)L), in which the […] of lysine is modified with fluoresceine. ovaFl has long been utilized by the field to interrogate binding of untagged peptides for MHC molecules. A decrease in cellular fluorescence should indicate higher association levels with MHC molecules, thereby informing on the relative affinity of the PTM-modified molecules. Critically, this assay retains MHC molecules within a physiologically relevant context and this alternative readout should complement the RMA-S MHC stabilization assay. […]
The emitter tip of the analytical column was laser-pulled to produce an opening of 2–5 μm, and a 2 mm kasil frit was used in place of the irregular reverse phase (RP) resin. […] If the same precursor ion was selected three times or was detected twice within a 20-s repeat duration, the ion was dynamically excluded for 15 s. […]

[3] = system: OVA specific TCR of B3Z T cell hybridoma; assay: B3Z T cell activation with peptide-loaded RMA-S cells (NFAT-LacZ / CPRG); assay type: cell-based; conditions: RMA-S cells with peptide and B3Z T cells overnight, effector to target 1:1; β-galactosidase by CPRG, absorbance 570 nm; Figure 2C, mean ± SD n = 4
From the text: To assess the impact of ovaWT PTMs on TCR recognition, we utilized the B3Z T cell hybridoma cell line that contains an OVA specific TCR along with a NFAT-LacZ reporter gene that encodes for β-galactosidase on an IL-2 inducible promoter.[79] Upon B3Z recognition of the OVA pMHC complex on RMA-S cells, IL-2 production promotes β-galactosidase expression, which can hydrolyze chlorophenol red-β-D-galactopyranoside (CPRG), and the resulting color change is representative of activation levels.
10^5 RMA-S cells were seeded in a treated 96 well plate at 37 °C overnight. The following day the culture media was replaced with media containing indicated concentration of peptide along with 10^5 B3Z cells in culture media and coincubated overnight. Cells were then spun down at 500xg for 5 min and washed with 1X PBS a total of two times. Lysis buffer containing 0.2% saponin, 500 μM CPRG reagent, 100 mM MgCl2, and 100 mM β-mercaptoethanol in 1X PBS was added to each well. After 2–4 h absorbance 570 was recorded using a BioTek Epoch 2 microplate reader.

SNFVSAGI [cntPEP]
interaction with H-2K^b (negative control) (H-2K^b [1]): not interact appreciably

ovaK7m3: ovaWT with trimethylation of K7
effect of PTM on MHC binding versus the unmodified peptide (ovaWT or mbpWT) (H-2K^b [2]): does not disrupt binding | detection of MHC-bound peptide after elution from live RMA-S cells (MHC on RMA-S cells): detected by mass spectrometry

Biotinylated Lysine SIINFKEL: ovaWT with biotinylated lysine (SIINFK(Biotin)EL; not fully specified)
effect of PTM on MHC binding versus the unmodified peptide (ovaWT or mbpWT) (H-2K^b [2]): binding levels are altered but the change is not significant | effect of PTM on TCR recognition (B3Z activation) versus ovaWT [3]: reduction in TCR recognition

N-Acetyl ESIVRFPNI [sarsWT with N-terminus acetylation]
effect of PTM on MHC binding versus sarsWT (H-2K^b [2]): completely disrupted MHC binding

Citrullinated ESIVRFPNI: sarsWT with arginine to citrulline (R5) (ESIV[Cit]FPNI)
effect of PTM on MHC binding versus sarsWT (H-2K^b [2]): no significant effect

Phosphoserine SIINFEKL: ovaWT with phosphorylated N-terminal serine
effect of PTM on MHC binding versus the unmodified peptide (ovaWT or mbpWT) (H-2K^b [2]): significant decrease in MHC binding | effect of PTM on TCR recognition (B3Z activation) versus ovaWT [3]: reduction in TCR recognition

SIINFEKL [ovaWT, reference compound]
detection of MHC-bound peptide after elution from live RMA-S cells (MHC on RMA-S cells): clearly detected
